# Source: patent US9469615B2, “Quinoxalines and AZA-quinoxalines as CRTH2 receptor modulators” (Merck Sharp & Dohme Corp., priority 2010, dated 2016)
# Target: T1, hCRTH2 (Homo sapiens, UniProt Q9Y5Y4)
# T1 construct: expressed in transfected cells; host or cells: HEK (human embryonic kidney) cells expressing hCRTH2; membrane preparation
# T1 sequence (Q9Y5Y4 1-395): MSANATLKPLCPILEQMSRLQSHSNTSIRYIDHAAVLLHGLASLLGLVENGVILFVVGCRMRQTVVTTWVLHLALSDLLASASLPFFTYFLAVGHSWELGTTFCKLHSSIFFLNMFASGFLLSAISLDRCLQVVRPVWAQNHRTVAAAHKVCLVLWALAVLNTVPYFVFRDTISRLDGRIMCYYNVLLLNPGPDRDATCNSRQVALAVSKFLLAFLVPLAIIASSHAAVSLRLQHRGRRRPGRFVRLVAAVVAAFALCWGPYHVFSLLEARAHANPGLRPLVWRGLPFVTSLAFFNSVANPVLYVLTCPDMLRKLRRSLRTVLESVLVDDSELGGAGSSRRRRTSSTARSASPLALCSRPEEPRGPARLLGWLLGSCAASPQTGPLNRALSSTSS
# Test: Radioligand binding assay ([3H]PGD2 competition, HEK-hCRTH2 membranes)
# Details: [3H]PGD2 binding, rated A-E (Table A)
# Method in brief: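 Displacement of 3.0 nM [3H]PGD2 from human CRTH2 expressed in HEK membranes was measured at room temperature over 60 min. Unlabelled PGD2 at 10 μM gave non-specific binding.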
row,Ki,SMILES
1,2.1 to 20 nM,"O=C(O)CCCCc1nc2cc(C(=O)N3CCC(c4ccccc4)CC3)ccc2nc1-c1ccc(Cl)cc1 [16J, 3-(4-chlorophenyl)-7-[(4-phenyl-1-piperidinyl)carbonyl]-2-quinoxalinepentanoic acid]"
2,20.1 to 200 nM,"O=C(O)CCCCc1nc2cc(C(=O)N3CCC(c4ccccc4)CC3)ccc2nc1-c1cncnc1 [26Q, 7-[(4-phenyl-1-piperidinyl)carbonyl]-3-(5-pyrimidinyl)-2-quinoxalinepentanoic acid]"
3,2.1 to 20 nM,"O=C(O)CCCCc1nc2cc(C(=O)N3CC(c4nc5ccccc5[nH]4)C3)ccc2nc1-c1ccccc1 [compound 247, 7-[[3-(1H-benzimidazol-2-yl)-1-azetidinyl]carbonyl]-3-phenyl-2-quinoxalinepentanoic acid]"
4,2.1 to 20 nM,"O=C(O)CCCCc1nc2cc(C(=O)NCc3ccc(OC(F)(F)F)cc3)ccc2nc1-c1ccc(C(F)(F)F)cc1 [compound 156, 7-[[[[4-(trifluoromethoxy)phenyl]methyl]amino]carbonyl]-3-[4-(trifluoromethyl)phenyl]-2-quinoxalinepentanoic acid]"
5,2.1 to 20 nM,"O=C(O)CCCCc1nc2cc(C(=O)N3CCCC3)ccc2nc1-c1ccccc1 [15BE, 5-[3-phenyl-7-(pyrrolidin-1-ylcarbonyl)quinoxalin-2-yl]pentanoic aicd]"
6,2.1 to 20 nM,"O=C(O)C1CC1CCc1nc2cc(C(=O)N3CCC(c4ccccc4)CC3)ccc2nc1-c1ccccc1 (single isomer, unassigned) [20H, 2-(2-(3-phenyl-7-(4-phenylpiperidine-1-carbonyl)quinoxaline-2-yl)ethyl)cyclopropanecarboxylic acid]"
7,2.1 to 20 nM,"C[C@@H]1CN(c2ccc(F)cc2)CCN1C(=O)c1ccc2nc(-c3ccccc3)c(CCCCC(=O)O)nc2c1 [compound 39, (R)-5-(7-(4-(4-fluorophenyl)-2-methylpiperazine-1-carbonyl)-3-phenylquinoxalin-2-yl)pentanoic acid]"
8,2.1 to 20 nM,"C[C@@H](c1ccccc1)N(C)C(=O)c1ccc2nc(-c3ccc(F)cc3)c(CCCCC(=O)O)nc2c1 [21C, -(4-fluorophenyl)-7-[[methyl(1(S)-phenylethyl)amino]carbonyl]-2-quinoxalinepentanoic acid]"
9,201 to 700 nM,"O=C(O)Cc1ccc(CCc2nc3cc(C(=O)NCc4cccc(Cl)c4)ccc3nc2-c2ccc(Cl)cc2)cc1 [compound 159, 4-[2-[3-(4-chlorophenyl)-7-[[[(3-chlorophenyl)methyl]amino]carbonyl]-2-quinoxalinyl]ethyl] benzeneacetic acid]"
10,2.1 to 20 nM,"C[C@@H](NC(=O)c1ccc2nc(-c3ccc(C#N)cc3)c(CCCCC(=O)O)nc2c1)c1ccc(F)cc1 [compound 215, 3-(4-cyanophenyl)-7-[[[1(R)-(4-fluorophenyl)ethyl]amino]carbonyl]-2-quinoxalinepentanoic acid]"
11,2.1 to 20 nM,"CC(CCCc1nc2cc(C(=O)N3CCC(c4ccccc4)CC3)ccc2nc1-c1ccc(C(F)(F)F)cc1)C(=O)O (stereo not drawn) [compound 18, alpha-methyl-7-[(4-phenyl-1-piperidinyl)carbonyl]-3-[4-(trifluoromethyl)phenyl]-2-quinoxalinepentanoic acid]"
12,2.1 to 20 nM,"O=C(O)CCCCc1nc2cc(C(=O)NC3(c4ccccc4)CCC3)ccc2nc1-c1ccccc1 [15AM, 5-{3-phenyl-7-[(1-phenylcyclobutyl)carbamoyl]quinoxalin-2-yl}pentanoic acid]"
13,0.1 to 2 nM,O=C(O)CCCCc1nc2cc(C(=O)NCc3ccc(Cl)cc3)ccc2nc1-c1ccc(F)cc1 [compound 100]
14,2.1 to 20 nM,"O=C(O)CCCCc1nc2cc(C(=O)N3CCC4(CC3)C(=O)NCN4c3ccccc3)ccc2nc1-c1ccccc1 [compound 125, 7-[(4-oxo-l-phenyl-1,3,8-triazaspiro[4.5]dec-8-yl)carbonyl]-3-phenyl-2-quinoxalinepentanoic acid]"
15,2.1 to 20 nM,"O=C(O)CCCNc1nc2cc(C(=O)N3CCN(c4ccc(Cl)cc4)CC3)ccc2nc1-c1ccccc1 [44L, 4-((7-(4-(4-chlorophenyl)piperazine-1-carbonyl)-3-phenylquinoxalin-2-yl)amino)butanoic acid]"
16,0.1 to 2 nM,CN(Cc1cccc(F)c1)C(=O)c1ccc2nc(-c3ccc(F)cc3)c(CCc3cccc(CC(=O)O)c3)nc2c1 [compound 201]
17,2.1 to 20 nM,"CC(=O)c1ccccc1-c1nc2ccc(C(=O)N3CCC(c4ccccc4)CC3)cc2nc1CCCCC(=O)O [26U, 3-(2-acetylphenyl)-7-[(4-phenyl-1-piperidinyl)carbonyl]-2-quinoxalinepentanoic acid]"
18,0.1 to 2 nM,"O=C(O)CCCCc1nc2cc(C(=O)N3CC[C@@H](c4ccccc4)C3)ccc2nc1-c1ccc(Cl)cc1 [16M, 3-(4-chlorophenyl)-7-[(3(S)-phenyl-1-pyrrolidinyl)carbonyl]-2-quinoxalinepentanoic acid]"
19,0.1 to 2 nM,"O=C(O)CCCCc1nc2cc(C(=O)N[C@@H](c3ccccc3)C(F)(F)F)ccc2nc1-c1ccc(Cl)cc1 [16i, 3-(4-chlorophenyl)-7-[[(2,2,2-trifluoro-1(s)-phenylethyl)amino]carbonyl]-2-quinoxalinepentanoic acid]"

# Same assay, conditions: [3H]PGD2 binding, values in text
row,Ki,SMILES
1,96.7 nM,"O=C(O)CCCCc1nc2cc(C(=O)N3CCC(c4ccccc4)CC3)ccc2nc1-c1cncnc1 [26Q, 7-[(4-phenyl-1-piperidinyl)carbonyl]-3-(5-pyrimidinyl)-2-quinoxalinepentanoic acid]"
2,8 nM,"C[C@@H]1CN(c2ccc(F)cc2)CCN1C(=O)c1ccc2nc(-c3ccccc3)c(CCCCC(=O)O)nc2c1 [compound 39, (R)-5-(7-(4-(4-fluorophenyl)-2-methylpiperazine-1-carbonyl)-3-phenylquinoxalin-2-yl)pentanoic acid]"
3,564 nM,"O=C(O)Cc1ccc(CCc2nc3cc(C(=O)NCc4cccc(Cl)c4)ccc3nc2-c2ccc(Cl)cc2)cc1 [compound 159, 4-[2-[3-(4-chlorophenyl)-7-[[[(3-chlorophenyl)methyl]amino]carbonyl]-2-quinoxalinyl]ethyl] benzeneacetic acid]"

# Same assay, conditions: [3H]PGD2 competition, Table B
row,Ki,SMILES
1,20.1 to 200 nM,"O=C(O)CCCCc1nc2cc(C(=O)N3CCCC3c3ccncc3)ccc2nc1-c1ccc(Cl)cc1 (stereo not drawn) [compound 650, 5-(3-(4-chlorophenyl)-7-(2-(pyridin-4-yl)pyrrolidine-1-carbonyl)quinoxalin-2-yl)pentanoic acid]"
2,2.1 to 20 nM,"O=C(O)CCCCc1nc2cc(C(=O)N3CC(OCc4ccccc4)C3)ccc2nc1-c1ccc(Cl)cc1 [compound 323, 5-(7-(3-(benzyloxy)azetidine-1-carbonyl)-3-(4-chlorophenyl)quinoxalin-2-yl)pentanoic acid]"
3,2.1 to 20 nM,"C[C@H](NC(=O)c1ccc2nc(-c3ccc(F)cc3)c(CCCCC(=O)O)nc2c1)c1cccc2ccccc12 [compound 536, (S)-5-(3-(4-fluorophenyl)-7-((1-(naphthalen-1-yl)ethyl)carbamoyl)quinoxalin-2-yl)pentanoic acid]"
4,20.1 to 200 nM,"O=C(O)CCCCc1nc2cc(C(=O)N3C[C@@H]4C[C@H]3CN4Cc3ccccc3)ccc2nc1-c1ccc(Cl)cc1 [compound 686, 5-(7-((1S,4S)-5-benzyl-2,5-diazabicyclo[2.2.1]heptane-2-carbonyl)-3-(4-chlorophenyl)quinoxalin-2-yl)pentanoic acid]"
5,2.1 to 20 nM,"C[C@@H]1CN(c2ccc(Cl)cc2)CCN1C(=O)c1ccc2nc(-c3ccccc3)c(CCCCC(=O)O)nc2c1 [compound 550, (R)-5-(7-(4-(4-chlorophenyl)-2-methylpiperazine-1-carbonyl)-3-phenyl-quinoxa1in-2-yl)pentanoic acid]"
6,2.1 to 20 nM,"O=C(O)CCCCc1nc2cc(C(=O)N[C@H]3COc4ccccc43)ccc2nc1-c1ccccc1 [compound 574, (R)-5-(7-((2,3-dihydrobenzofuran-3-yl)carbamoyl)-3-phenylquinoxalin-2-yl)pentanoic acid]"
7,2.1 to 20 nM,"C[C@H](NC(=O)c1ccc2nc(-c3ccccc3)c(CCCCC(=O)O)nc2c1)c1ccc(F)cn1 [compound 474, (S)-5-(7-((1-(5-fluoropyridin-2-yl)ethyl)carbamoyl)-3-phenylquinoxalin-2-yl)pentanoic acid]"
8,2.1 to 20 nM,"O=C(O)CCCCc1nc2cc(C(=O)N[C@@H]3CCCc4ccccc43)c(F)cc2nc1-c1ccc(F)cc1 [compound 717, (R)-5-(6-fluoro-3-(4-fluorophenyl)-7-((1,2,3,4-tetrahydronaphthalen-1-yl)carbamoyl)quinoxalin-2-yl)pentanoic acid]"
9,2.1 to 20 nM,"C[C@H](NC(=O)c1ccc2nc(-c3ccc(Cl)cc3)c(CCc3cc(F)cc(CC(=O)O)c3)nc2c1)c1ccc(F)cc1 [compound 450, (S)-2-(3-(2-(3-(4-chlorophenyl)-7-((1-(4-fluorophenyl)ethyl)carbamoyl)quinoxalin-2-yl)ethyl)-5-fluorophenyl)acetic acid]"
10,2.1 to 20 nM,"O=C(O)CCCCc1nc2cc(C(=O)N[C@H]3COc4cc(F)ccc43)ccc2nc1-c1ccc(Cl)cc1 [compound 313, (R)-5-(3-(4-chlorophenyl)-7-((6-fluoro-2,3-dihydrobenzofuran-3-yl)carbamoyl)quinoxalin-2-yl)pentanoic acid]"
11,2.1 to 20 nM,"CC(CCCc1nc2cc(C(=O)N[C@H](C)c3ccc(Cl)cc3)ccc2nc1-c1ccc(Cl)cc1)C(=O)O (stereo partly drawn) [compound 391, 5-(3-(4-chlorophenyl)-7-(((R)-1-(4-chlorophenyl)ethyl)carbamoyl)quinoxalin-2-yl)-2-methylpentanoic acid]"
12,2.1 to 20 nM,"O=C(O)CCCCc1nc2cc(C(=O)N[C@@H]3COc4ccccc43)ccc2nc1-c1ccccc1 [compound 573, (S)-5-(7-((2,3-dihydrobenzofuran-3-yl)carbamoyl)-3-phenylquinoxalin-2-yl)pentanoic acid]"
13,20.1 to 200 nM,"O=C(O)CCCCc1nc2cc(C(=O)N3CCCCC3c3nccs3)ccc2nc1-c1ccc(Cl)cc1 (stereo not drawn) [compound 654, 5-(3-(4-chlorophenyl)-7-(2-(thiazol-2-yl)piperidine-1-carbonyl)quinoxalin-2-yl)pentanoic acid]"
14,0.1 to 2 nM,"CC1(C)CC(NC(=O)c2ccc3nc(-c4ccc(Cl)cc4)c(CCCCC(=O)O)nc3c2)c2ccccc2O1 (stereo not drawn) [compound 582, 5-(3-(4-chlorophenyl)-7-((2,2-dimethylchroman-4-yl)carbamoyl)quinoxalin-2-yl)pentanoic acid]"
